Results taken from ChEMBL document CHEMBL3396964, “SAH derived potent and selective EZH2 inhibitors” (Bioorg Med Chem Lett, 2015).
The source made the active and inactive calls. No cut-off for these calls is given here.

Tests used:
[1] = biological target: T1, Histone-lysine N-methyltransferase SUV39H1 (Homo sapiens, UniProt O43463); experiment: Inhibition of SUV39H1 (unknown origin) by HMT assay
T1 sequence (O43463 whole entry): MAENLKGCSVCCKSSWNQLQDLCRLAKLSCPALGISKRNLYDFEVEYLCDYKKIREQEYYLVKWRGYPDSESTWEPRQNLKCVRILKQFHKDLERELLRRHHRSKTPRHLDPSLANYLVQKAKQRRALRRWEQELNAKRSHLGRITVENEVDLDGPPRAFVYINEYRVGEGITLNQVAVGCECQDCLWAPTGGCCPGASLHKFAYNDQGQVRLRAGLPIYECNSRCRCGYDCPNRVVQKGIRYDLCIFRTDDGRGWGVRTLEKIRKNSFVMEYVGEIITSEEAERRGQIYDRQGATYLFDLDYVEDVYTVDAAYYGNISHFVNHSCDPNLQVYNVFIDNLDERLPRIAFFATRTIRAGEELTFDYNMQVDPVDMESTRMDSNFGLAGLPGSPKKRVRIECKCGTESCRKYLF

[2] = biological target: T2, Histone-lysine N-methyltransferase EHMT1 (Homo sapiens) (UniProt Q9H9B1); experiment: Inhibition of EHMT1 (unknown origin) at 10 uM by HMT assay
T2 sequence (whole entry): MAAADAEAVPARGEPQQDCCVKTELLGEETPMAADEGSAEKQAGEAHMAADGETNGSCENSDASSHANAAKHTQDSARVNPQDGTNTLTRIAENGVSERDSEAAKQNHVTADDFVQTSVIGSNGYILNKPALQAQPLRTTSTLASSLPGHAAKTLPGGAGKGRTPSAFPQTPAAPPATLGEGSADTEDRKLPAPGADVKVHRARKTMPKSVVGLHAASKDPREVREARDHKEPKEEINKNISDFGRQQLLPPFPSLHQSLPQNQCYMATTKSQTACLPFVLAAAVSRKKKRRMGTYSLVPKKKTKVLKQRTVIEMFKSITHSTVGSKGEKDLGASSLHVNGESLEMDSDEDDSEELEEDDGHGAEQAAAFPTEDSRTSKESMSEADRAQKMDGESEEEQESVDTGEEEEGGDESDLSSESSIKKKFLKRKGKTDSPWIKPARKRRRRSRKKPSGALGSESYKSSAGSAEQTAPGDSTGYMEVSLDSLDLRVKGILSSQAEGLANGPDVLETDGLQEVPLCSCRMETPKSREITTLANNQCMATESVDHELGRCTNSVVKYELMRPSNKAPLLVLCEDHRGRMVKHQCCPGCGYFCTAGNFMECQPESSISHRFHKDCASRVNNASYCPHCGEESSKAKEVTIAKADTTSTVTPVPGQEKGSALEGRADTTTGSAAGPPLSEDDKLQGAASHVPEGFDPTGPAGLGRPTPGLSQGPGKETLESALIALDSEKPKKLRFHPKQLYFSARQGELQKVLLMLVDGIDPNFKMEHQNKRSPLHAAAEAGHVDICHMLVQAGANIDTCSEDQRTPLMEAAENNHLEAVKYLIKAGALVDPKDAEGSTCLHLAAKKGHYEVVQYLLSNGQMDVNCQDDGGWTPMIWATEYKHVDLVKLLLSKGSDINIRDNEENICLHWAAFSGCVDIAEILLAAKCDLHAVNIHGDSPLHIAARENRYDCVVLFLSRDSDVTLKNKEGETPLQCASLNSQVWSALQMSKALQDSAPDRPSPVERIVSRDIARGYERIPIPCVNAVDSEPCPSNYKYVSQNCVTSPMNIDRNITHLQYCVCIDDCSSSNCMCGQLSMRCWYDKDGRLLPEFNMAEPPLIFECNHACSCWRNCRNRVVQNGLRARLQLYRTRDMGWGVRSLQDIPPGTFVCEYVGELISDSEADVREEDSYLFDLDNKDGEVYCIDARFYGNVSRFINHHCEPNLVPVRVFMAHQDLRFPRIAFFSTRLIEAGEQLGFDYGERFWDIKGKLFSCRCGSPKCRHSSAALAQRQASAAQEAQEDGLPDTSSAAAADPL

[3] = biological target: Histone-lysine N-methyltransferase KMT5C (Homo sapiens, UniProt Q86Y97); conditions: 10 uM
Histone-lysine N-methyltransferase KMT5C, sequence (Q86Y97 whole entry, looked up): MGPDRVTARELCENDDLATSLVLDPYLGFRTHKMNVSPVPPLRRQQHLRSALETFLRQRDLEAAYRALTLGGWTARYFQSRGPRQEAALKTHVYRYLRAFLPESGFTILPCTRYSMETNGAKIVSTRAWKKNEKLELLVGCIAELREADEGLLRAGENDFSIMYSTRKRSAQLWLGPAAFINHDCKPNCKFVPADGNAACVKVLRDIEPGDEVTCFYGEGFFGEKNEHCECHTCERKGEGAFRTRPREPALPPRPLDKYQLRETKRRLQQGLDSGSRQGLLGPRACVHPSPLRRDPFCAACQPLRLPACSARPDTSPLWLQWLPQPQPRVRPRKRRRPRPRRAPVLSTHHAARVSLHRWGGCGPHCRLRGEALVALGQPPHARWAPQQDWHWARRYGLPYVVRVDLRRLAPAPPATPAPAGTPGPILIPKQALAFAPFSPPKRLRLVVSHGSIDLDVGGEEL
Description: Inhibition of SUV420H2 (unknown origin) at 10 uM by HMT assay

For `Nc1ncnc2c1ncn2[C@@H]1O[C@H](CSCC[C@H](N)C(=O)NCc2cc(-c3ccccc3)[nH]n2)[C@@H](O)[C@H]1O`, the IC50 [1] was 9.5 µM, the inhibition [2] was 24% and the inhibition [3] was “inactive”.
